Experimental data published in patent US9809616B2, “Pyrimidine nucleosides and their monophosphate prodrugs for the treatment of viral infections and cancer” (Cocrystal Pharma, Inc., priority 2012, dated 2017).

System: Huh-7 cells
Experiment: LC/MS analysis of nucleotides formed after 4 hr incubation of 50 μM drug in Huh-7 cells
Assay type: in vitro ADME
Details: 4 hr incubation in Huh-7 cells
Experimental: Shown below are two examples of the LC/MS qualitative analysis of nucleotides formed after 4 h incubation of 50 μM N^4-hydroxycytidine nucleosides and N^4-hydroxycytidine monophosphate prodrugs in Huh-7 cells.

SMILES | Metabolite 2′-OH-2′-Me-U formed in cells | Metabolite 2′-OH-2′-Me-UDP formed in cells | Metabolite 2′-OH-2′-Me-UMP formed in cells | Metabolite 36-MP formed in cells | Metabolite 36 formed in cells | Metabolite 37 in cells | Metabolite 2′-F-2′-Me-U formed in cells | Metabolite 2′-F-2′-Me-UDP formed in cells | Metabolite 2′-F-2′-Me-UMP formed in cells | further results
C[C@@]1(O)[C@H](O)[C@@H](CO)O[C@H]1n1ccc(NO)nc1=O [Compound 37, 1-((2R,3R,4R,5R)-3,4-dihydroxy-5-(hydroxymethyl)-3-methyltetrahydrofuran-2-yl)-4-(hydroxyamino)pyrimidin-2(1H)-one] | BLOQ | BLOQ | BLOQ | BLOQ | BLOQ | BLOQ | – | – | – | Metabolite 2′-OH-2′-Me-UTP formed in cells: BLOQ; Metabolite 36-DP formed in cells: BLOQ; Metabolite 36-TP formed in cells: BLOQ; Metabolite 37-DP formed in cells: BLOQ; Metabolite 37-MP formed in cells: BLOQ
CCOC(=O)[C@H](C)NP(=O)(OC[C@H]1O[C@@H](n2ccc(NO)nc2=O)[C@](C)(O)[C@@H]1O)Oc1ccccc1 (stereo partly drawn) [Compound 44, (2S)-ethyl 2-(((((2R,3R,4R,5R)-3,4-dihydroxy-5-(4-(hydroxyamino)-2-oxopyrimidin-1(2H)-yl)-4-methyltetrahydrofuran-2-yl)methoxy)(phenoxy)phosphoryl)amino)propanoate] | BLOQ | BLOQ | BLOQ | BLOQ | BLOQ | BLOQ | – | – | – | Metabolite 44 (prodrug) in cells: 13.3 ± 1.7 pmol/10^6 cells
C[C@@]1(F)[C@H](O)[C@@H](CO)O[C@H]1n1ccc(NO)nc1=O [Compound 39, 1-((2R,3R,4R,5R)-3-fluoro-4-hydroxy-5-(hydroxymethyl)-3-methyltetrahydrofuran-2-yl)-4-(hydroxyamino)pyrimidin-2(1H)-one] | – | – | – | – | – | – | BLOQ | BLOQ | BLOQ | Metabolite 38-MP formed in cells: BLOQ; Metabolite 38 formed in cells: BLOQ; Metabolite 39-DP formed in cells: BLOQ; Metabolite 39-MP formed in cells: BLOQ; Metabolite 39-TP formed in cells: BLOQ
CCOC(=O)[C@H](C)NP(=O)(OC[C@H]1O[C@@H](n2ccc(NO)nc2=O)[C@](C)(F)[C@@H]1O)Oc1ccccc1 (stereo partly drawn) [Compound 51, (2S)-ethyl 2-(((((2R,3R,4R,5R)-4-fluoro-3-hydroxy-5-(4-(hydroxyamino)-2-oxopyrimidin-1(2H)-yl)-4-methyltetrahydrofuran-2-yl)methoxy)(phenoxy)phosphoryl)amino)propanoate] | – | – | – | – | – | – | BLOQ | BLOQ | BLOQ | Metabolite 51 (prodrug) in cells: 71.5 ± 2.3 pmol/10^6 cells
